Laboratory results reported in ChEMBL document CHEMBL4706583, “2-Anilinoquinoline based arylamides as broad spectrum anticancer agents with B-RAF/C-RAF kinase inhibitory effects: Design, synthesis, in vitro cell-based and oncogenic kinase assessments” (Eur J Med Chem, 2020).

How the values were obtained:
K562 = assay: Growth inhibition of human K562 cells measured after 48 hrs by SRB assay; format: functional
[1] = target: RAF proto-oncogene serine/threonine-protein kinase (Homo sapiens, UniProt P04049); assay: Inhibition of human CRAF using MEK1 (K97R) as substrate in presence of [gamma-33P]ATP by scintillation counting method
HOP-62 = assay: Growth inhibition of human HOP-62 cells measured after 48 hrs by SRB assay; format: functional
SW-620 = assay: Growth inhibition of human SW-620 cells measured after 48 hrs by SRB assay; format: functional
SK-OV-3 = assay: Growth inhibition of human SK-OV-3 cells measured after 48 hrs by SRB assay; format: functional
786-0 = assay: Growth inhibition of human 786-0 cells measured after 48 hrs by SRB assay; format: functional
SK-MEL-5 = assay: Growth inhibition of human SK-MEL-5 cells measured after 48 hrs by SRB assay; format: functional
UACC-257 = assay: Growth inhibition of human UACC-257 cells measured after 48 hrs by SRB assay; format: functional
KM12 = assay: Growth inhibition of human KM12 cells measured after 48 hrs by SRB assay; format: functional
SK-MEL-2 = assay: Growth inhibition of human SK-MEL-2 cells measured after 48 hrs by SRB assay; format: functional
OVCAR-5 = assay: Growth inhibition of human OVCAR-5 cells measured after 48 hrs by SRB assay; format: functional
HCT-116 [2] = assay: Induction of apoptosis in human HCT-116 cells assessed as viable cells at 2.5 uM measured after 24 hrs by Annexin-V Alexa Fluor488/propidium iodide staining based flow cytometry (reference value: 88.1%); format: functional; settings: read-out: Activity
HCT-116 [3] = assay: Induction of apoptosis in human HCT-116 cells assessed as early apoptotic cells at 5 uM measured after 48 hrs by Annexin-V Alexa Fluor488/propidium iodide staining based flow cytometry (reference value: 7.7%); format: functional
[4] = Cytotoxicity against African green monkey Vero cells assessed as cell viability at 10 uM measured after 48 hrs by EZ-Cytox assay relative to control; format: cell-based; settings: chlorocebus sabaeus, read-out: Activity
HCT-116 [5] = assay: Induction of apoptosis in human HCT-116 cells assessed as late apoptotic cells at 5 uM measured after 24 hrs by Annexin-V Alexa Fluor488/propidium iodide staining based flow cytometry (reference value: 1%); format: functional
U-251 = assay: Growth inhibition of human U-251 cells measured after 48 hrs by SRB assay; format: functional
NCI/ADR-RES = assay: Growth inhibition of human NCI/ADR-RES cells measured after 48 hrs by SRB assay; format: functional
[6] = Cytotoxicity against African green monkey Vero cells assessed as cell viability at 3 uM measured after 48 hrs by EZ-Cytox assay relative to control; format: cell-based; settings: chlorocebus sabaeus, read-out: Activity
SF-295 = assay: Growth inhibition of human SF-295 cells measured after 48 hrs by SRB assay; format: functional
HCT-116 [7] = assay: Induction of apoptosis in human HCT-116 cells assessed as necrotic cells at 5 uM measured after 24 hrs by Annexin-V Alexa Fluor488/propidium iodide staining based flow cytometry (reference value: 4.6%); format: functional
HCT-116 [8] = assay: Induction of apoptosis in human HCT-116 cells assessed as necrotic cells at 2.5 uM measured after 48 hrs by Annexin-V Alexa Fluor488/propidium iodide staining based flow cytometry (reference value: 7.7%); format: functional
HCT-116 [9] = assay: Induction of apoptosis in human HCT-116 cells assessed as late apoptotic cells at 1.25 uM measured after 48 hrs by Annexin-V Alexa Fluor488/propidium iodide staining based flow cytometry (reference value: 2.2%); format: functional
HT-29 = assay: Growth inhibition of human HT-29 cells measured after 48 hrs by SRB assay; format: functional
NCI-H226 = assay: Growth inhibition of human NCI-H226 cells measured after 48 hrs by SRB assay; format: functional
Homo sapiens = species: Homo sapiens; assay: Selectivity ratio of IC50 for inhibition of human BRAF V600E mutant to IC50 for inhibition of human CRAF
HCT-116 [10] = assay: Induction of apoptosis in human HCT-116 cells assessed as viable cells at 1.25 uM measured after 24 hrs by Annexin-V Alexa Fluor488/propidium iodide staining based flow cytometry (reference value: 88.1%); format: functional; settings: read-out: Activity
Hs-578T = assay: Growth inhibition of human Hs-578T cells measured after 48 hrs by SRB assay; format: functional
HCT-116 [11] = assay: Induction of apoptosis in human HCT-116 cells assessed as late apoptotic cells at 2.5 uM measured after 24 hrs by Annexin-V Alexa Fluor488/propidium iodide staining based flow cytometry (reference value: 1%); format: functional
Malme-3M = assay: Growth inhibition of human Malme-3M cells measured after 48 hrs by SRB assay; format: functional
OVCAR-3 = assay: Growth inhibition of human OVCAR-3 cells measured after 48 hrs by SRB assay; format: functional
RPMI-8226 = assay: Growth inhibition of human RPMI-8226 cells measured after 48 hrs by SRB assay; format: functional
M14 = assay: Growth inhibition of human M14 cells measured after 48 hrs by SRB assay; format: functional
HCT-116 [12] = assay: Induction of apoptosis in human HCT-116 cells assessed as late apoptotic cells at 2.5 uM measured after 48 hrs by Annexin-V Alexa Fluor488/propidium iodide staining based flow cytometry (reference value: 2.2%); format: functional
HCT-116 [13] = assay: Induction of apoptosis in human HCT-116 cells assessed as early apoptotic cells at 2.5 uM measured after 48 hrs by Annexin-V Alexa Fluor488/propidium iodide staining based flow cytometry (reference value: 7.7%); format: functional
[14] = Cytotoxicity against African green monkey Vero cells assessed as cell viability at 1 uM measured after 48 hrs by EZ-Cytox assay relative to control; format: cell-based; settings: chlorocebus sabaeus, read-out: Activity
HCT-116 [15] = assay: Induction of apoptosis in human HCT-116 cells assessed as necrotic cells at 2.5 uM measured after 24 hrs by Annexin-V Alexa Fluor488/propidium iodide staining based flow cytometry (reference value: 4.6%); format: functional
HCT-116 [16] = assay: Induction of apoptosis in human HCT-116 cells assessed as viable cells at 1.25 uM measured after 48 hrs by Annexin-V Alexa Fluor488/propidium iodide staining based flow cytometry (reference value: 82.3%); format: functional; settings: read-out: Activity
LOX IMVI = assay: Growth inhibition of human LOX IMVI cells at 10 uM measured after 48 hrs by SRB assay relative to control; format: functional; settings: read-out: GI
SNB-75 = assay: Growth inhibition of human SNB-75 cells measured after 48 hrs by SRB assay; format: functional
HCT-116 [17] = assay: Induction of apoptosis in human HCT-116 cells assessed as necrotic cells at 5 uM measured after 48 hrs by Annexin-V Alexa Fluor488/propidium iodide staining based flow cytometry (reference value: 7.7%); format: functional
[18] = read-out: LC50 (the source's name)

Sequence of RAF proto-oncogene serine/threonine-protein kinase (P04049 whole entry): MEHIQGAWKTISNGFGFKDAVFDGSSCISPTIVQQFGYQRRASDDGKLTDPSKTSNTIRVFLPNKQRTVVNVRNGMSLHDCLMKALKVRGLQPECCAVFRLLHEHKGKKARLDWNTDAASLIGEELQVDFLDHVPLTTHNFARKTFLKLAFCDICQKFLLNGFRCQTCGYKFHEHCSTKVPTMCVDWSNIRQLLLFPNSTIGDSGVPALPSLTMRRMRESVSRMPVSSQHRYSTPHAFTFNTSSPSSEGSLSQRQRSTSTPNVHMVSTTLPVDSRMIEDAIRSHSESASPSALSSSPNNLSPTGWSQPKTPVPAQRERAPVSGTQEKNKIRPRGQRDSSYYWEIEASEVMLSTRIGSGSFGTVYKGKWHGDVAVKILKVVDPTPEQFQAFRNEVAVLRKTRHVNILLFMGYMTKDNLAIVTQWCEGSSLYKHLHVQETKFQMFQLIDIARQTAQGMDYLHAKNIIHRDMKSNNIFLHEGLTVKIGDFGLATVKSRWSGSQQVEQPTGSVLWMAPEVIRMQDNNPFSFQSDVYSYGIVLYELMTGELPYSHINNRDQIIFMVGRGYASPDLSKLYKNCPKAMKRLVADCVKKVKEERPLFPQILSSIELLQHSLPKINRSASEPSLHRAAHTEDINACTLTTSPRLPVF

With `CCN1CCN(c2cc(C(=O)Nc3cccc(Nc4ccc5c(OC)cccc5n4)c3)cc(C(F)(F)F)c2)CC1` the GI50 (K562) was 910 nM, the IC50 [1] was 229 nM and the GI50 (HOP-62) was 1020 nM. It also gave a GI50 (SW-620) of 3670 nM, a GI50 (SK-OV-3) of 4600 nM and a GI50 (786-0) of 3730 nM. It also gave a GI50 (SK-MEL-5) of 1550 nM, a GI50 (UACC-257) of 1020 nM and a GI50 (KM12) of 1710 nM. For the same compound, the GI50 (SK-MEL-2) was 5300 nM, the GI50 (OVCAR-5) was 2780 nM and the viability at 2.5 µM (HCT-116 [2]) was 82.9%. For the same compound, the Activity (HCT-116 [3]) was 26.8%, the viability at 48 h, 10 µM [4] was 74.1% and the Activity (HCT-116 [5]) was 0.8%. The GI50 (U-251) was 1360 nM, the GI50 (NCI/ADR-RES) was 1290 nM and the viability at 48 h, 3 µM [6] was 76.8%. The GI50 (SF-295) was 803 nM, the LC50 (SF-295) was 11400 nM and the TGI (SF-295) was 2250 nM. For the same compound, the Activity (HCT-116 [7]) was 0.6%, the Activity (HCT-116 [8]) was 1.2% and the Activity (HCT-116 [9]) was 0.4%. It also gave a GI50 (HT-29) of 572 nM, a TGI (HT-29) of 1210 nM and a CC50 (HT-29; [18]) of 2560 nM. For the same compound, the GI50 (NCI-H226) was 2850 nM, the Ratio IC50 (Homo sapiens) was 2 and the viability at 1.25 µM (HCT-116 [10]) was 86.5%. It also gave a GI50 (Hs-578T) of 3610 nM, an Activity (HCT-116 [11]) of 0.9% and a GI50 (Malme-3M) of 611 nM. The LC50 (concentration killing 50% of cells) (Malme-3M) was 2880 nM, the TGI (Malme-3M) was 1330 nM and the GI50 (OVCAR-3) was 3410 nM. It also gave a GI50 (RPMI-8226) of 1200 nM, an LC50 (concentration killing 50% of cells) (RPMI-8226) of 15300 nM and a TGI (RPMI-8226) of 5320 nM. It also gave a GI50 (M14) of 668 nM, a TGI (M14) of 1650 nM and a CC50 (M14; [18]) of 5860 nM. For the same compound, the Activity (HCT-116 [12]) was 1%, the Activity (HCT-116 [13]) was 19% and the viability at 48 h, 1 µM [14] was 81.5%. The Activity (HCT-116 [15]) was 0.6%, the viability at 1.25 µM (HCT-116 [16]) was 82.7% and the inhibition of growth at 10 µM (LOX IMVI) was 194%. For the same compound, the GI50 (SNB-75) was 1050 nM and the Activity (HCT-116 [17]) was 0.5%.
